Key:
MM1.S [1] = assay: Inhibition of cell growth in human MM1.S cells incubated for 48 hrs by MTT assay; format: functional, cell-based
[2] = Inhibition of full length human GST tagged LC3 (1 to 120 residues)/p62 (unknown origin) interaction expressed in Escherichia coli BL21 Star (DE3) incubated for 2 hrs by SPR based competitive binding assay
MM1.S [3] = assay: Inhibition of cell growth in human MM1.S cells; format: functional

IC50 (MM1.S [1]) [nM] | IC50 [2] [nM] | Compound | also measured
4600 |  | OCCNCc1ccc(OCc2ccc(F)cc2)c(OCc2ccc(F)cc2)c1 | 
6190 |  | OCCNCc1ccc(OCc2ccccc2)c(OCc2ccccc2)c1 | 

Continued, compound first:

Compound | IC50 (MM1.S [1]) [nM] | IC50 [2] [nM] | also measured
O=C(O)CSc1cc(NS(=O)(=O)c2ccc(Br)cc2)c2ccccc2c1O |  | 900 | 
O=C1CC(=O)c2ccc3c4c(ccc1c24)C(=O)CC3=O |  | 2000 | 
Fc1ccc(COc2ccc(CNCC3CCCCC3)cc2OCc2ccc(F)cc2F)c(F)c1 |  |  | IC50 (MM1.S [3]): 840 nM

Reference: ChEMBL document CHEMBL5233236, “p62 as a therapeutic target for tumor” (Eur J Med Chem, 2020)
